How the values were obtained:
MAPKs (ERK, JNK, p38) = test: Western blotting of MAPKs activity in LPS-treated Raw 264.7 cells; assay type: cell-based, mouse
Method: Western blotting was performed in the same manner as in Example 6.3. The first antibody used at this time is an antibody against p-ERK, ERK, p-JNK, JNK, p-p38, p38 and calnexin (Cell signaling, CA, USA), and the secondary antibody is anti-mouse or anti-rabbit HRP-binding secondary antibody.
Western blotting was performed in the same manner as in Example 7.4.

[1] = system: pro-inflammatory cytokines (TNF-α, IL-1β, IL-6, IL-17, iNOS) in Raw 264.7 cells; test: RT-qPCR of LPS-induced pro-inflammatory cytokine expression in Raw 264.7 cells; settings: 6 hours
Excerpt: Lipopolysaccharide (LPS) was purchased from Sigma-Aldrich (St. Louis, Mo., USA).

p65 NF-κB = test: Western blotting of NF-κB activity in LPS-treated SW982 cells; assay type: cell-based, human
Method: (§1) 1× Cell lysis buffer (Cell signaling, CA, USA) was mixed with protease and a phosphatase inhibitor and added to SW982 cells. After extracting the protein from the cells, the concentration was measured, and the same amount of protein was developed on an SDS-polyacrylamide gel, and transferred to an ECL nitrocellulose membrane (Amersham Pharmacia Biotech, Inc., Piscataway, N.J., USA) and blocked with nonfat dried milk for 1 hour. Thereafter, the reaction was performed with the first antibody (p65 NF-κB, phospho p65 NF-κB or calnexin; Cell signaling, CA, USA), while shaking at 4° C. for 24 hours. Then, after shaking and washing 3 times for 10 minutes with PBST buffer, the secondary antibody was incubated with anti-mouse or anti-rabbit HRP-conjugated secondary antibody for 1 hour at room temperature, and reacted with the protein band on the membrane using Supersignal west pico ECL solution (Thermo Fisher Scientific Inc.). The results were visualized with the Bio-Rad Gel Documentation system (Bio-Rad Laboratories, Hercules, Calif., USA), and the results were shown in FIG. 26.
as §1, with “phospho p65 NF-κB, p-ERK, ERK, p-JNK, JNK, p-p38, p38 or calnexin;” for “phospho p65 NF-κB or calnexin;”, “Scientific Inc.). […]” for “Scientific Inc.). The results were visualized with the Bio-Rad Gel Documentation system (Bio-Rad Laboratories, Hercules, Calif., USA), and the results were shown in FIG. 26.”

## O=C1CC[C@@]2(O)[C@H]3Cc4ccc(O)c5c4[C@@]2(CCN3CC2CC2)[C@H]1O5 [Naltrexone, 17-(cyclopropylmethyl)-4,5α-epoxy-3,14-dihydroxymorphinan-6-one]
MAPKs (ERK, JNK, p38); LPS 1 ug/ml, 0.5, 1, 10, 100 uM, 30 minutes
  phosphorylation of MAPKs (ERK1/2, JNK, p38): no inhibitory effect
MAPKs (ERK, JNK, p38); naltrexone 100, 200, 500, or 1000 ug/ml, Western blotting
  phosphorylation of MAPKs increased by LPS: not inhibited
[1]; LPS 1 ug/ml, 0.5, 1, 10, 100 uM
  expression of cytokines (iNOS, IL-1β, IL-6, TNF-α) induced by LPS: suppressed at all concentrations
[1]; LPS 1 ug/ml, naltrexone 200 or 500 ug/ml
  expression of pro-inflammatory cytokines (TNF-α, IL-1β, IL-6, IL-17, iNOS) increased by LPS: significantly inhibited
p65 NF-κB; 200 ug/ml of naltrexone, Western blotting
  phosphorylation of p65 NF-κB increased by LPS: inhibited
p65 NF-κB; LPS 1 ug/ml, 0.5, 1, 10, 100 uM, 30 minutes, naltrexone effect at 1 uM
  phosphorylation of p65 NF-κB increased by LPS: inhibited

From patent US11730731B2 (INVENTAGE LAB INC., priority 2021, dated 2023)
